Test results published in ChEMBL document CHEMBL4265919, “Structural alterations based on naproxen scaffold: Synthesis, evaluation of antitumor activity and COX-2 inhibition, and molecular docking” (Eur J Med Chem, 2018).

Legend:
Caco-2 = assay: Antiproliferative activity against human Caco2 cells by MTT assay; assay type: functional, cell-based
HCT-116 = assay: Antiproliferative activity against human HCT116 cells by MTT assay; assay type: functional, cell-based
MDA-MB-231 = assay: Antiproliferative activity against human MDA231 cells by MTT assay; assay type: functional, cell-based
HeLa = assay: Antiproliferative activity against human HeLa cells by MTT assay; assay type: functional, cell-based
[1] = target: T1, Prostaglandin G/H synthase 1 (Ovis aries, UniProt P05979); assay: Inhibition of ovine COX1 using arachidonic acid as substrate incubated for 5 mins followed by substrate addition measured after 2 mins by colorimetric based ELISA
T1 sequence (P05979 whole entry): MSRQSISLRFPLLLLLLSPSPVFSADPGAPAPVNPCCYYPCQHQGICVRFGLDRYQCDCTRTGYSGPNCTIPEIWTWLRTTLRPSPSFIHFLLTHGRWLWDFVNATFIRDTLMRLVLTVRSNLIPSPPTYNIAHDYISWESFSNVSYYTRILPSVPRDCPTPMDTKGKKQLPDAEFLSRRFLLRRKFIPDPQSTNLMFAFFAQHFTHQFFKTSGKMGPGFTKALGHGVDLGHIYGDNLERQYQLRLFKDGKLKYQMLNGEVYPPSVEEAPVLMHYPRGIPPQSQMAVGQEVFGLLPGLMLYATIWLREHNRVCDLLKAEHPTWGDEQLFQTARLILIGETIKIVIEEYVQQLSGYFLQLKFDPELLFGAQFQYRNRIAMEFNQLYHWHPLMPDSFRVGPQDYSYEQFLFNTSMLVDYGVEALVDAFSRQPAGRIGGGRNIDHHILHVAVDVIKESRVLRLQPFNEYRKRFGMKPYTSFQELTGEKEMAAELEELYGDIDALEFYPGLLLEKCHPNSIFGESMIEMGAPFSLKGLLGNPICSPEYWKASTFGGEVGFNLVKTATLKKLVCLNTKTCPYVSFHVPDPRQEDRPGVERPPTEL

MCF7 = assay: Antiproliferative activity against human MCF7 cells by MTT assay; assay type: functional, cell-based

| Structure (SMILES) | IC50 (Caco-2) [µM] | IC50 (HCT-116) [µM] | IC50 (MDA-MB-231) [µM] | IC50 (HeLa) [µM] | IC50 [1] [µM] | IC50 (MCF7) [µM] |
| --- | --- | --- | --- | --- | --- | --- |
| COc1ccc2cc(C(C)c3nnc4n3N=C(c3ccccc3)CS4)ccc2c1 (stereo not drawn) | 81.3 | 67.4 | 49.2 | – | – | – |
| COc1ccc2cc(C(C)c3n[nH]c(=S)n3N)ccc2c1 (stereo not drawn) | 77.7 | 60.5 | 41.8 | 20.7 | > 25 | 38.3 |
| COc1ccc2cc(C(C)C(=O)NN3C(=O)CCC3=O)ccc2c1 (stereo not drawn) | 63.8 | 56.2 | 52.8 | 30.4 | > 25 | 26.7 |
| COc1ccc2cc(C(C)C(=O)NN=C3CCCCC3)ccc2c1 (stereo not drawn) | 18.8 | 14.5 | 9.65 | 13 | > 25 | 12.1 |
| COc1ccc2cc(C(C)c3nnc4n3NC(=O)CS4)ccc2c1 (stereo not drawn) | > 100 | > 100 | 93.8 | 86.4 | – | 85.7 |
| COc1ccc2cc(C(C)C(=O)NN=C3CCCCCC3)ccc2c1 (stereo not drawn) | 46.1 | 44.7 | 32.7 | 59.4 | > 25 | 48.2 |
| COc1ccc2cc(C(C)c3nnc(-c4ccc(O)cc4)o3)ccc2c1 (stereo not drawn) | 33.9 | 10.5 | 7.29 | 6.15 | > 25 | 5.89 |
| COc1ccc2cc(C(C)c3n[nH]c(=S)n3/N=C/c3ccc(O)cc3)ccc2c1 (stereo not drawn) | 13.8 | 5.14 | 4.83 | 9.03 | > 25 | 7.74 |
| COc1ccc2cc(C(C)c3nnc(-c4ccc([N+](=O)[O-])cc4)o3)ccc2c1 (stereo not drawn) | > 100 | 75 | 66.3 | 35.1 | > 25 | 42.1 |
| COc1ccc2cc(C(C)c3nnc(SCc4ccccc4)o3)ccc2c1 (stereo not drawn) | > 100 | > 100 | 89.4 | > 100 | – | 91.4 |
| COc1ccc2cc(C(C)c3n[nH]c(=S)n3/N=C/c3ccccc3)ccc2c1 (stereo not drawn) | 28 | 19.1 | 14.8 | 65.6 | > 25 | 61.7 |
| COc1ccc2cc(C(C)C(=O)NN3C(=O)C=CC3=O)ccc2c1 (stereo not drawn) | 39.5 | 22.1 | 11.1 | 15.1 | > 25 | 21.9 |
| COc1ccc2cc(C(C)C(=O)NN=C3CCCC3)ccc2c1 (stereo not drawn) | > 100 | > 100 | 80.7 | 69.1 | – | 71.5 |
| COc1ccc2cc(C(C)c3nnc(-c4ccc(C)cc4)o3)ccc2c1 (stereo not drawn) | 43.9 | 28.4 | 16.2 | 19.4 | > 25 | 31.7 |
| COc1ccc2cc(C(C)c3nnc(SC)o3)ccc2c1 (stereo not drawn) | 73.5 | 39.9 | 29.5 | 26.2 | > 25 | 57.2 |
| COc1ccc2cc(C(C)C(=O)NN=C3CCN(C)CC3)ccc2c1 (stereo not drawn) | > 100 | 83.6 | 72 | 51.6 | – | 68.7 |
| COc1ccc2cc(C(C)C(=O)NN3C(=O)c4ccccc4C3=O)ccc2c1 (stereo not drawn) | 58.2 | 49.8 | 37.2 | 78.6 | > 25 | 79.3 |
| COc1ccc2cc(C(C)c3nnc(SC4CCCC4)o3)ccc2c1 (stereo not drawn) | 50.9 | 34.3 | 23.2 | 48.9 | > 25 | 47.1 |
| COc1ccc2cc(C(C)c3n[nH]c(=S)n3/N=C/c3cccc(Br)c3)ccc2c1 (stereo not drawn) | 16 | 8.76 | 8.14 | 12.1 | > 25 | 9.26 |
| CN(C)C/C=C/C(=O)Nc1cc2c(Nc3ccc(F)c(Cl)c3)ncnc2cc1O[C@H]1CCOC1 [AFATINIB] | 7.7 | 11.4 | 7.5 | 6.2 | – | 7.1 |
| Cc1ccc(-c2cc(C(F)(F)F)nn2-c2ccc(S(N)(=O)=O)cc2)cc1 [CELECOXIB] | 42.7 | 29.5 | 22.8 | 36.1 | – | 31.3 |
| COc1cccc2c1C(=O)c1c(O)c3c(c(O)c1C2=O)C[C@@](O)(C(=O)CO)C[C@@H]3O[C@H]1C[C@H](N)[C@H](O)[C@H](C)O1 [DOXORUBICIN] | 26.8 | – | – | – | – | – |
